Assay results reported in patent US5420335A, “Parenteral nutrients based on watersoluble glycerol bisacetoacetates” (priority 1993, dated 1995).
“Also recorded” adds a separate entry of the source. Like-named read-outs stand apart in the source and are kept apart here.

Assays:
[1] = in words, prior art; cited from earlier work
[2] = in words; cited from earlier work
Water solubility = settings: in words

SMILES | water solubility [1] | metabolized in vivo [2] | water solubility (Water solubility)
CC(=O)CC(=O)OCC(O)CO (stereo not drawn) [monoacetoacetin, monoacetoacetylglycerol] | water soluble | metabolized in vivo | 
CC(=O)CC(=O)OCC(COC(=O)CC(C)=O)OC(=O)CC(C)=O [trisacetoacetyl glycerol, trisacetoacetylglycerol] |  |  | rendered water soluble when in the presence of a glycerol bisacetoacetate; also recorded: insoluble by itself in water; also recorded: surprisingly solubilized in water when in the presence of 1,2- and 1,3-bisacetoacetyl glycerol
